{
  "source": "ChEMBL document CHEMBL1201862",
  "about": "“PubChem BioAssay data set” (2004)",
  "key": {"[1]": {"biological_target": "72 kDa type IV collagenase (Homo sapiens, UniProt P08253)", "sequence (P08253 whole entry)": "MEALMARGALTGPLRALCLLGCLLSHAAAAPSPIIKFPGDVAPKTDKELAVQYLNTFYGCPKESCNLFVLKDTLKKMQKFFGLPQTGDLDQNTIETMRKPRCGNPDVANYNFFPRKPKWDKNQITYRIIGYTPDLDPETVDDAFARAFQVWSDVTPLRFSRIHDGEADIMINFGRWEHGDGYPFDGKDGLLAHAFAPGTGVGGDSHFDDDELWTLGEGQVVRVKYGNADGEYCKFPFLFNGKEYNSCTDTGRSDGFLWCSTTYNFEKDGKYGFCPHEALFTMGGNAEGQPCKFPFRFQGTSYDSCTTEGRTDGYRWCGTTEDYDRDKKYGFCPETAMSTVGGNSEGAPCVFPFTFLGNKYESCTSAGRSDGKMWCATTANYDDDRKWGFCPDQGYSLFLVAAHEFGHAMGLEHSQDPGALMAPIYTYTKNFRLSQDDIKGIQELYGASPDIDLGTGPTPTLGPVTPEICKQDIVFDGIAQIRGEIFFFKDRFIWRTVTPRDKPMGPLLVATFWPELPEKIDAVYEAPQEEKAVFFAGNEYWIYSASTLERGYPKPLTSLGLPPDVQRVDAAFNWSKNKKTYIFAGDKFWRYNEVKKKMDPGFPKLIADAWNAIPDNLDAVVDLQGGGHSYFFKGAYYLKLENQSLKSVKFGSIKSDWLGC", "test": "Dose Response validation of uHTS RPN11 inhibitor hits using a MMP-2 Fluorescence assay.", "type": "functional"}, "[2]": {"biological_target": "26S proteasome non-ATPase regulatory subunit 14 (Homo sapiens, UniProt O00487)", "sequence (O00487 whole entry)": "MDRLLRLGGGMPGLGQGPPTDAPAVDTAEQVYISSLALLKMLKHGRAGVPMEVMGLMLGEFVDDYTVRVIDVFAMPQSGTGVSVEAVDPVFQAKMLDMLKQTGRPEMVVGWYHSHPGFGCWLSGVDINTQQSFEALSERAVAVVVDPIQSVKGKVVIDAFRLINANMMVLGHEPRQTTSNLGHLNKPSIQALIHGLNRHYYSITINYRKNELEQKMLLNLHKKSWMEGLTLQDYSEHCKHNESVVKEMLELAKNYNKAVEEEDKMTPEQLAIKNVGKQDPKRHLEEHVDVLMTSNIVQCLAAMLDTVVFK", "test": "inhibition of proteasome subunit RPN11 – biochemical, fluorescence polarization, uHTS hits, confirmation (AID 602368)", "type": "functional"}, "Prothrombin": {"biological_target": "Prothrombin (Bos taurus, UniProt P00735)", "test": "thrombin protease inhibitors – biochemical, fluorescence polarization, uHTS hits, dose response (AID 602369)", "type": "functional"}, "Melanocortin receptor 4": {"biological_target": "Melanocortin receptor 4 (Homo sapiens, UniProt P32245)", "sequence (P32245 whole entry)": "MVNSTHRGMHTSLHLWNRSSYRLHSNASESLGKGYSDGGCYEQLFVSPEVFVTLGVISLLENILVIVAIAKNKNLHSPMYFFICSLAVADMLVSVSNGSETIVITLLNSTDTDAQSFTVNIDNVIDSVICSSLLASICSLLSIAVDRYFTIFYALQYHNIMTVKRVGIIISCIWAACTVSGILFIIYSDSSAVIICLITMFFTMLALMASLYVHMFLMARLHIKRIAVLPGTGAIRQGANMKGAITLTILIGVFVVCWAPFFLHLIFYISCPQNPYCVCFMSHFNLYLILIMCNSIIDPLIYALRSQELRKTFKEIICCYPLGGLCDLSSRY", "type": "functional, cell-based"}, "HEK293 [3]": {"system": "HEK293", "test": "SAR Analysis of small molecule inhibitors of T-cell specific antigen receptor-induced NF-kB activation in a HEK-293T cell line using a luminescence assay - Set 2. [Related pubchem assays (depositor defined):AID435003, AID435012, AID489026]", "type": "functional, cell-based", "conditions": "Homo sapiens"}, "HEK293 [4]": {"system": "HEK293", "test": "HEK293T cell viability loss, resazurin readout – resazurin fluorescence, cytotoxicity control for NF-kB activator project, SAR follow-up (AID 493251)", "type": "functional, cell-based", "conditions": "Homo sapiens"}, "Jurkat": {"system": "Jurkat", "test": "SAR Analysis of small molecule inhibitors of T-cell specific antigen receptor-induced NF-kB activation in a Jurkat cell line using a luminescence assay - Set 2. [Related pubchem assays (depositor defined):AID435003, AID435012, AID465]", "type": "functional, cell-based", "conditions": "Homo sapiens"}, "[5]": {"biological_target": "T1, Histone-lysine N-methyltransferase NSD2 (Homo sapiens, UniProt O96028)", "T1 sequence (O96028 whole entry)": "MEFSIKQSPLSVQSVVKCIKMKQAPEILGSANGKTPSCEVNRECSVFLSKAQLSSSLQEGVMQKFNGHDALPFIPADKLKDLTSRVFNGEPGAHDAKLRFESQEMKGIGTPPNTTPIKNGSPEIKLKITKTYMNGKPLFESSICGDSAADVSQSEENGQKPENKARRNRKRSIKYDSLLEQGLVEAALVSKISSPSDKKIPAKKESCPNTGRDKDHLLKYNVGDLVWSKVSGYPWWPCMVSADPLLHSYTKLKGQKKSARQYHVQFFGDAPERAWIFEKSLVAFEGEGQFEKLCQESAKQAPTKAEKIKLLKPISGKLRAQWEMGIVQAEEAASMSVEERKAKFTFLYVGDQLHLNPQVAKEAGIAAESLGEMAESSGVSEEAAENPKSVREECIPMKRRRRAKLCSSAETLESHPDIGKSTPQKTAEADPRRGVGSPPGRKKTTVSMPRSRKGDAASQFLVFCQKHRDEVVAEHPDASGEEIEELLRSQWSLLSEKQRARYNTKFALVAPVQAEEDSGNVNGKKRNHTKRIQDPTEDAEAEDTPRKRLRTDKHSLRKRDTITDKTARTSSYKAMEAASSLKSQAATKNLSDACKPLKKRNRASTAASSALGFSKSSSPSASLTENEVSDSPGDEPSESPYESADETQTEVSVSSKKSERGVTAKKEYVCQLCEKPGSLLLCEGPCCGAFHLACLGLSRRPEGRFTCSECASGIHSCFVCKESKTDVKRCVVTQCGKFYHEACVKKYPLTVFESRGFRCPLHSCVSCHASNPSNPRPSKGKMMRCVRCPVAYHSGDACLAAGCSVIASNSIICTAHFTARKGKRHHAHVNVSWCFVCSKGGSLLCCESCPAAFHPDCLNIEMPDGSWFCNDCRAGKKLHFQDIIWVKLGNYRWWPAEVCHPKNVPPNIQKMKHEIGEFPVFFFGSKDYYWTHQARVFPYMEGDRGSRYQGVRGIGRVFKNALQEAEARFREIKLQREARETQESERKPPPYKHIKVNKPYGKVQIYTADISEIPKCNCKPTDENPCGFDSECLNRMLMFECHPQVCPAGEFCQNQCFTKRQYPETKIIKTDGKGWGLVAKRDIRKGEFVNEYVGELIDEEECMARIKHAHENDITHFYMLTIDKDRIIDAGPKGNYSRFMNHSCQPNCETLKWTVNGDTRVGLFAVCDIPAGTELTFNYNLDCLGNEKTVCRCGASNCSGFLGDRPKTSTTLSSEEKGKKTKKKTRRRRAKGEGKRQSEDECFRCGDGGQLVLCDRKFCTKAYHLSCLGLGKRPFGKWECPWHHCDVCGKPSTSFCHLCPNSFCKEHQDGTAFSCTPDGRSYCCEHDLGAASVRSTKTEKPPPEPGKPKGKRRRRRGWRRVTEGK", "type": "biochemical"}, "[6]": {"biological_target": "DNA (cytosine-5)-methyltransferase 1 (Homo sapiens, UniProt P26358)", "sequence (P26358 whole entry)": "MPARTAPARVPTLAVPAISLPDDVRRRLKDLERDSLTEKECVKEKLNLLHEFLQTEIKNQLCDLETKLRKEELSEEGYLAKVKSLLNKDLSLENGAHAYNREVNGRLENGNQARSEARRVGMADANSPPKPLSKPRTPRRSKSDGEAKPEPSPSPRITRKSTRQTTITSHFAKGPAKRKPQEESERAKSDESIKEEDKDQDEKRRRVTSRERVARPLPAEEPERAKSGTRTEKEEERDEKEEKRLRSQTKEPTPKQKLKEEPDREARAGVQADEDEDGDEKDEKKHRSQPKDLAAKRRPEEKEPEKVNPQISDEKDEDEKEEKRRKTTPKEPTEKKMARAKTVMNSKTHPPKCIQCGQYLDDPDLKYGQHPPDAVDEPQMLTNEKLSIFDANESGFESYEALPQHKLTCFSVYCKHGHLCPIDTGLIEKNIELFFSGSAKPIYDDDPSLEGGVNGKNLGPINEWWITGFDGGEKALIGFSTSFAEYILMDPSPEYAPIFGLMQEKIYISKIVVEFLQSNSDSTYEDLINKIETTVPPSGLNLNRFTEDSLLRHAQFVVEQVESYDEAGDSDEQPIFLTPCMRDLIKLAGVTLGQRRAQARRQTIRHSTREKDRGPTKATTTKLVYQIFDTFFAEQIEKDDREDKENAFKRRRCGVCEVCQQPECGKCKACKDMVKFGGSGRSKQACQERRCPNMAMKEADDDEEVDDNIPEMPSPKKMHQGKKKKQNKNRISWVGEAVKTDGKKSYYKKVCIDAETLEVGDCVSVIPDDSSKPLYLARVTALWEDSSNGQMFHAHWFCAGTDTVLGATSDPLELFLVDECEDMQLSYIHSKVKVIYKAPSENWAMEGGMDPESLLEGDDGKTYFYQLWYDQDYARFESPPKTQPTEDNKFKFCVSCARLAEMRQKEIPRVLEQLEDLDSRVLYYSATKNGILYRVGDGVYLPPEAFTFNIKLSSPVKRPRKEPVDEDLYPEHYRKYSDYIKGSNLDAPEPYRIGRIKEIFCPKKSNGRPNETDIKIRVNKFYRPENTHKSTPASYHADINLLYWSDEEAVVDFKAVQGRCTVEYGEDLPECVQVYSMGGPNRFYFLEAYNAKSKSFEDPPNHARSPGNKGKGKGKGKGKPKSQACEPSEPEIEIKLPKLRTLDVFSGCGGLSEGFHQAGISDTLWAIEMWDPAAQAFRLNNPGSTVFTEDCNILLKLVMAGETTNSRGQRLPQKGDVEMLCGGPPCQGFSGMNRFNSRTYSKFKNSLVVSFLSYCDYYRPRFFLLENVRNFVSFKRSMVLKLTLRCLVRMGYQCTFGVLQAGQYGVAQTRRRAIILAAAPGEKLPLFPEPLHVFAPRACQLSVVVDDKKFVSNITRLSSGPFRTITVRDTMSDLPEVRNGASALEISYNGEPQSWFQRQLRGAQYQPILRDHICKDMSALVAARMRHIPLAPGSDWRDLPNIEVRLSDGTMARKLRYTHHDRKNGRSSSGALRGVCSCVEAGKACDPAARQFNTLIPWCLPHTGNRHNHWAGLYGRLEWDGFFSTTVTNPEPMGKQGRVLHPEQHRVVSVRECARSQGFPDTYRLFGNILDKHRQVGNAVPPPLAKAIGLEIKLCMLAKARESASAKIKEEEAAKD", "test": "inhibition of DNA methylation by DNMT1 – biochemical, fluorescent molecular beacon, confirmation (AID 602386)", "type": "functional"}, "Escherichia coli": {"system": "Escherichia coli", "test": "microbe, parasite or virus in culture"}, "[7]": {"test": "Luminescence Cell-Based Dose Confirmation HTS to Identify Activators of 5'UTR Stem-Loop Driven Alpha-Synuclein mRNA Translation in H4 Neuroglioblastoma Cells. [Related pubchem assays: 1829 (Project Summary), 1814 (Primary HTS)]", "type": "functional"}, "[8]": {"test": "Luminescence Cell-Based Dose Response HTS to Identify Activators of Luciferase Translation or Activity in H4 […] Cells. [Related pubchem assays: 1829 (Project Summary), 1814 (Primary HTS)]", "type": "functional"}, "H4": {"system": "H4", "test": "Luminescence Cell-Based Dose Response HTS to Identify Activators of 5'UTR Stem-Loop Driven Prion Protein mRNA Translation in H4 Neuroglioblastoma Cells. [Related pubchem assays: 1829 (Project Summary), 1814 (Primary HTS)]", "type": "functional", "conditions": "Homo sapiens"}, "HEK293 [9]": {"system": "HEK293", "test": "inhibition of NOD1-driven NF-kB reporter – cell-based, luminescence, uHTS, primary screen (AID 1578)", "type": "functional", "conditions": "Homo sapiens"}, "HEK293 [10]": {"system": "HEK293", "test": "cells", "type": "functional, cell-based", "conditions": "Homo sapiens"}, "[11]": {"test": "Trypanosoma cruzi growth suppression in host cells – NIH3T3 host cells, beta-gal luminescence, confirmation (AID 2044);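 also: luminescent beta-galactosidase reporter signal from transgenic T. cruzi replicating inside host cells; inhibitors lower the luminescence signal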", "type": "functional, cell-based"}, "HEK293 [12]": {"system": "HEK293", "test": "NOD2 signaling inhibitors in MDP-stimulated cells, cell-based, uHTS, luminescence (AID 2001)", "type": "functional", "conditions": "Homo sapiens"}, "[13]": {"test": "NIH3T3 cell viability loss – ATP luminescence, mouse fibroblasts, counter-screen, dose response (AID 2010);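 also: cells exposed to compound for about 90 hours before reading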", "type": "functional, cell-based"}, "[14]": {"biological_target": "FAD-linked sulfhydryl oxidase ALR (Homo sapiens, UniProt P55789)", "sequence (P55789 whole entry)": "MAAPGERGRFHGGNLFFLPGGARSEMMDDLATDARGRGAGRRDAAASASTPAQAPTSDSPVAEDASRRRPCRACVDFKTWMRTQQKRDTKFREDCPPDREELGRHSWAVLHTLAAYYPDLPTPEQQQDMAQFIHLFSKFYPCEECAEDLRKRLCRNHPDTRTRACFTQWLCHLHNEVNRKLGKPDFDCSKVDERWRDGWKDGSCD", "test": "ALR-catalysed DTT oxidation blockers – biochemical, H2O2 detection, luminescence, cherry-pick, dose response (AID 493248)"}, "HEK293 [15]": {"system": "HEK293", "test": "cells", "type": "functional, cell-based", "conditions": "Homo sapiens", "remark": "listed apart in the source"}, "Caspase-6": {"biological_target": "T2, Caspase-6 (Homo sapiens, UniProt P55212)", "T2 sequence (P55212 whole entry)": "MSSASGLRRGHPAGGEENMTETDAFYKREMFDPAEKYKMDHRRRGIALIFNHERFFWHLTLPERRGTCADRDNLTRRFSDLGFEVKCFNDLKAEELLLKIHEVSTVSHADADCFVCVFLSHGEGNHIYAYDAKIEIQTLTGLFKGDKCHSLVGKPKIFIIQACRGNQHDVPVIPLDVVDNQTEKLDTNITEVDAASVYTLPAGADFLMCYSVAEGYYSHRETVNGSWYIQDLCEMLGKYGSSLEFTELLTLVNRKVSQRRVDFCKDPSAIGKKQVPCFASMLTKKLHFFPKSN", "test": "inhibition of CASP6 peptide cleavage – biochemical, VEID-R110 fluorescence, cherry-pick, dose response (AID 720632)"}},
  "note": "Active and inactive are the calls of the source.",
  "data": [
    {"smiles": "COc1ccc(/C=C2\\Oc3cc(OCC(=O)N4CCC[C@H]4C(=O)O)ccc3C2=O)c(OC)c1", "values": [
      {"measurement": "IC50", "setting": "[1]", "result": "> 100 µM (inactive)"},
      {"measurement": "IC50", "setting": "[2]", "result": "11 µM (active)"},
      {"measurement": "IC50", "setting": "Prothrombin", "result": "14.3 µM (active)"}
    ]},
    {"smiles": "CC(C)c1ccc(NS(=O)(=O)c2ccc(-n3cccn3)cc2)cc1", "values": [
      {"measurement": "EC50", "setting": "Melanocortin receptor 4", "result": "> 89.2 µM (inactive)"}
    ]},
    {"smiles": "CCOc1ccc(C(=O)Nc2ccc(NC(=O)c3cc4ccccc4o3)cc2)cc1[N+](=O)[O-]", "values": [
      {"measurement": "IC50", "setting": "HEK293 [3]", "result": "> 80 µM (inactive)"},
      {"measurement": "IC50", "setting": "HEK293 [4]", "result": "> 80 µM (inactive)"},
      {"measurement": "IC50", "setting": "Jurkat", "result": "48.8 µM (inactive)"}
    ]},
    {"smiles": "ClN=C1C=CC=CC1=NCl", "values": [
      {"measurement": "AC50", "setting": "[5]", "result": "4.62 µM (active)"},
      {"measurement": "IC50", "setting": "[6]", "result": "7.2 µM (active)"}
    ]},
    {"smiles": "CC1Cc2cc(C(=O)C3=C(O)C(=O)N(Cc4ccco4)C3c3cccs3)ccc2O1", "note": "(stereo not drawn)", "values": [
      {"measurement": "AC50", "setting": "Escherichia coli", "result": "18.3 µM (active)"},
      {"measurement": "EC50", "setting": "[7]", "result": "11.9 µM (active)"},
      {"measurement": "EC50", "setting": "[8]", "result": "8.54 µM (active)"},
      {"measurement": "EC50", "setting": "H4", "result": "35.2 µM (active)"}
    ]},
    {"smiles": "Cc1ccc2c(c1)N(C)/C(=C/c1cccc[n+]1C)S2", "values": [
      {"measurement": "EC50", "setting": "cells", "result": "0.015 µM (active)"},
      {"measurement": "EC50", "setting": "HEK293 [9]", "result": "13.3 µM (active)"},
      {"measurement": "IC50", "setting": "HEK293 [10]", "result": "> 20 µM (inactive)"},
      {"measurement": "EC50", "setting": "[11]", "result": "< 0.1 µM (active)"},
      {"measurement": "IC50", "setting": "HEK293 [12]", "result": "17 µM (inactive)"},
      {"measurement": "EC50", "setting": "[13]", "result": "> 60 µM (not active)"},
      {"measurement": "AC50", "setting": "[14]", "result": "63.1 µM (active)"},
      {"measurement": "IC50", "setting": "HEK293 [15]", "result": "10.6 µM (active)"}
    ]},
    {"smiles": "COc1ccc(S(=O)(=O)N2CCN(C(=O)C3COc4ccccc4O3)CC2)cc1", "note": "(stereo not drawn)", "values": [
      {"measurement": "AC50", "setting": "Caspase-6", "result": "0.685 µM (active)"},
      {"measurement": "IC50", "setting": "[6]", "result": "5.82 µM (active)"}
    ]}
  ]
}
